According to patent publication US20120122860A1, “SOLID FORMS OF SULFONAMIDES AND AMINO ACIDS” (Plexxikon, Inc., priority 2009, published 2012):

Tests used:
[1] = target: Src (Homo sapiens, UniProt P12931); assay: Kinase activity assay, Src
[2] = target: MAP4K4 (Homo sapiens, UniProt O95819); assay: Kinase activity assay, MAP4K4
[3] = target: Kit (Homo sapiens, UniProt P10721); assay: Kinase activity assay, Kit
[4] = target: T1, TEC (Homo sapiens, UniProt P42680); assay: Kinase activity assay, TEC
T1 sequence (P42680 1-631): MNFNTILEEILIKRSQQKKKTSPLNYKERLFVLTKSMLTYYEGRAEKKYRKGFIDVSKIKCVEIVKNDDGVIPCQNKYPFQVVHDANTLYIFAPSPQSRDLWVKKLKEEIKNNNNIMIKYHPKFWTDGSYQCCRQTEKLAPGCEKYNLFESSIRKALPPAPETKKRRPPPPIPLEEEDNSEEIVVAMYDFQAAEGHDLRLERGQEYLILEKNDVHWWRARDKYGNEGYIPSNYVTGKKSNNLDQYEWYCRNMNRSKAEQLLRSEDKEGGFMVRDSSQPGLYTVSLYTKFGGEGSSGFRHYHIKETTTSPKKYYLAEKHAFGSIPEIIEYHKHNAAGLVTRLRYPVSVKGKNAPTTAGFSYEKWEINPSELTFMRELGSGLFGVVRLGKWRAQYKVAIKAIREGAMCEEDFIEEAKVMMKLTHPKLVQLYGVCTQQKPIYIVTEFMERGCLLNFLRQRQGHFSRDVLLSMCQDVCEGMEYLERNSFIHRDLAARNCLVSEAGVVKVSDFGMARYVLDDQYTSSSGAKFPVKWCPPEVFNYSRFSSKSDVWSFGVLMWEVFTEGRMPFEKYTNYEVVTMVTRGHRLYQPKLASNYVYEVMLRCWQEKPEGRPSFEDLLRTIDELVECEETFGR

[5] = target: Kdr (Homo sapiens, UniProt P35968); assay: Kinase activity assay, Kdr
[6] = target: Fms (Homo sapiens, UniProt P07333); assay: Kinase activity assay, Fms
Fms, sequence (P07333 20-972): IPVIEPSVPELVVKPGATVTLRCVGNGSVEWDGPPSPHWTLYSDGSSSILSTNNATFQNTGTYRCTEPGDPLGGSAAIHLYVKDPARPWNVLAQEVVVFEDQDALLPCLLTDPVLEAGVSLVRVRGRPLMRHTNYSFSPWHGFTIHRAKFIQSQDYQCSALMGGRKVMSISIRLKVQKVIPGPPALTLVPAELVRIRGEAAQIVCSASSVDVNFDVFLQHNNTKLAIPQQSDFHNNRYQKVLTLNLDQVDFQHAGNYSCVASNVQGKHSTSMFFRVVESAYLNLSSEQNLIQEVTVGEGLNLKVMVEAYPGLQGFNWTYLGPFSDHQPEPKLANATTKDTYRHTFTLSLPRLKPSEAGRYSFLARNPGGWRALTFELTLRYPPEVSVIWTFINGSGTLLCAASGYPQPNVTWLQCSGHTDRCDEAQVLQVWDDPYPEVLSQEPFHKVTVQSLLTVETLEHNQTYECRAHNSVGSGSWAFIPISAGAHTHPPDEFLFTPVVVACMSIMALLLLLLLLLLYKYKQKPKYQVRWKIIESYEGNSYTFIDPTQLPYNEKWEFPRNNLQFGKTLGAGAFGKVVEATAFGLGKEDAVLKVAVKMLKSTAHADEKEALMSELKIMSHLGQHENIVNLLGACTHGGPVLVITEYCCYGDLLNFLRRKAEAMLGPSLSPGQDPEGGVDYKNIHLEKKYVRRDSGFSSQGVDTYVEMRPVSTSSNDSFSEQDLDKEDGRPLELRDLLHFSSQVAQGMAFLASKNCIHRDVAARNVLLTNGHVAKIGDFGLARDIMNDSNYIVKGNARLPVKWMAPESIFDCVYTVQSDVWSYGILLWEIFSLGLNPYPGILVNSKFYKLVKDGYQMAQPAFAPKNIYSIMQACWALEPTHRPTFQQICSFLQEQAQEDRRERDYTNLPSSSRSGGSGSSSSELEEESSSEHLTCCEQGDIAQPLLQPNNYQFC

[7] = target: Btk (Homo sapiens, UniProt Q06187); assay: Kinase activity assay, Btk
Btk, sequence (Q06187 whole entry): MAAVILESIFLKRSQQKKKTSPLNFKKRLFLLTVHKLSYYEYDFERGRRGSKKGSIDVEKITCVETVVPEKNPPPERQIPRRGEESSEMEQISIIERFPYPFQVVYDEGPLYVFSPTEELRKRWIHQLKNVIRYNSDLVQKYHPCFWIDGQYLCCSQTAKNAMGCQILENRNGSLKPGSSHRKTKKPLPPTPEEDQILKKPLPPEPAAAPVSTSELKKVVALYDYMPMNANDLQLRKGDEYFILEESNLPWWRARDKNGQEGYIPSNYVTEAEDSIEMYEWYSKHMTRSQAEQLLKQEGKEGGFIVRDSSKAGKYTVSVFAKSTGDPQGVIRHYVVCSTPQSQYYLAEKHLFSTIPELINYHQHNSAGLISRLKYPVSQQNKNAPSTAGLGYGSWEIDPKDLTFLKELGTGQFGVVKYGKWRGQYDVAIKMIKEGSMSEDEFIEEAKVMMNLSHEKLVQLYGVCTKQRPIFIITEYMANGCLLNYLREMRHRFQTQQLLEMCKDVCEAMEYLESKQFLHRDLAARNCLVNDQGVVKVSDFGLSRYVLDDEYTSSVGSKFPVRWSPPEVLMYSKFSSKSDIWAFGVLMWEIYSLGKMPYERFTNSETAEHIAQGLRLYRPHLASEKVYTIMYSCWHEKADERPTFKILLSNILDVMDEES

[8] = target: C-Raf (Homo sapiens, UniProt P04049); assay: Kinase activity assay, C-Raf
[9] = target: B-Raf (Homo sapiens, UniProt P15056); assay: Kinase activity assay, B-Raf; type: biochemical; settings: read-out: activity toward kinase B-Raf, IC50
[10] = target: B-Raf V600E (Homo sapiens, UniProt P15056, V600E); assay: Kinase activity assay, B-Raf V600E; type: biochemical; settings: read-out: activity toward kinase B-Raf V600E, IC50
B-Raf V600E, sequence (P15056 whole entry V600E): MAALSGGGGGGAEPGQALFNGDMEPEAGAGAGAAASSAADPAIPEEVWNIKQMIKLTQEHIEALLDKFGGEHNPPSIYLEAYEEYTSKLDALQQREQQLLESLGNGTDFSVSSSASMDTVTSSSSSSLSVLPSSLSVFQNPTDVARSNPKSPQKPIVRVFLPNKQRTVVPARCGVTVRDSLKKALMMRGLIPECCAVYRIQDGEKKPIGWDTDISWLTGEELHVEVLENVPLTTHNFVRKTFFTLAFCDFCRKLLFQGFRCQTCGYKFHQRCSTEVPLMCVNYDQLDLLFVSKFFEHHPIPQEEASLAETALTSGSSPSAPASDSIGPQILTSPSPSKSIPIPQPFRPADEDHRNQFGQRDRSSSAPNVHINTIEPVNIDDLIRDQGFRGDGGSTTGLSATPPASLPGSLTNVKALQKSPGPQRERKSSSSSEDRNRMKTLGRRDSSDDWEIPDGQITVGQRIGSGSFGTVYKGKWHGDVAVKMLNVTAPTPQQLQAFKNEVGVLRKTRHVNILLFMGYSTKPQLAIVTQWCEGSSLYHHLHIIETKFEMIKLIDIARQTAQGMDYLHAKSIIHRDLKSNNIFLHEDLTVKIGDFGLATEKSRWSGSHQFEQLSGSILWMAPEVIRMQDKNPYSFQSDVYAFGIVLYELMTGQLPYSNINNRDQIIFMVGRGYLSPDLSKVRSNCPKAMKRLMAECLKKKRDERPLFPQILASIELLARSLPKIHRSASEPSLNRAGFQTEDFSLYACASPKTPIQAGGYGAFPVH

Measured: IC50

MAP4K4, sequence (O95819 whole entry): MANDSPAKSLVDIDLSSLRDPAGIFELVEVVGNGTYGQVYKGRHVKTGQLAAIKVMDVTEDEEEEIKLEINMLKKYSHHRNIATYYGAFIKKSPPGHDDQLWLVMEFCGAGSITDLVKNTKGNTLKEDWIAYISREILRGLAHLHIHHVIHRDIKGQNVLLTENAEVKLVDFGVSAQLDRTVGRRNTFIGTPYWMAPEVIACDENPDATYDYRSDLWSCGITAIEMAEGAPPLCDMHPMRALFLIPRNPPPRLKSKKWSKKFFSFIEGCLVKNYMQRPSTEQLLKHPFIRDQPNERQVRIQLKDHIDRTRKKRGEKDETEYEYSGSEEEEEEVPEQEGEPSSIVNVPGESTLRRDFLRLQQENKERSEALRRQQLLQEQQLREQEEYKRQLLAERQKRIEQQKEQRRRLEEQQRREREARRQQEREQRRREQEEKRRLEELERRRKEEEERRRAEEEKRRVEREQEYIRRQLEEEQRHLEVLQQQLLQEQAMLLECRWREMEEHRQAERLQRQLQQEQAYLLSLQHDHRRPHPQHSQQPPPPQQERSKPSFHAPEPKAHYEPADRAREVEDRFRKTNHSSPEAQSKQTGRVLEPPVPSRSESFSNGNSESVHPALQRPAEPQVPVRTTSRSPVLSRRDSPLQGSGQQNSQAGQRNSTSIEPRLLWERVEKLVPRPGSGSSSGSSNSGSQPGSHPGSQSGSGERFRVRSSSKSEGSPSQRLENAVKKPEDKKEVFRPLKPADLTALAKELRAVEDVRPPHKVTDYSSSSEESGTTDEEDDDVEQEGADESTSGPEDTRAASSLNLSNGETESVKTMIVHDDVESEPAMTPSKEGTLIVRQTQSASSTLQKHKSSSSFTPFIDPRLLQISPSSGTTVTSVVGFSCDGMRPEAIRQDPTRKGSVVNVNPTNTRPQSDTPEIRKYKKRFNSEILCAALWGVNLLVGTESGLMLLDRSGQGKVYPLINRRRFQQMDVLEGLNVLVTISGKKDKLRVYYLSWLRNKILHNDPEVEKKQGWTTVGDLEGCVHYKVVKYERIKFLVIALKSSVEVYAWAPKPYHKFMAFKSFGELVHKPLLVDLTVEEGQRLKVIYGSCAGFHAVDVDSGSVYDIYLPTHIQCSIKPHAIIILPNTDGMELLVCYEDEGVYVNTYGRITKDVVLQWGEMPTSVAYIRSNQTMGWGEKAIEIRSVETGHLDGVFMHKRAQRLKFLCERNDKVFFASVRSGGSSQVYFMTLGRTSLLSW
Src, sequence (P12931 whole entry): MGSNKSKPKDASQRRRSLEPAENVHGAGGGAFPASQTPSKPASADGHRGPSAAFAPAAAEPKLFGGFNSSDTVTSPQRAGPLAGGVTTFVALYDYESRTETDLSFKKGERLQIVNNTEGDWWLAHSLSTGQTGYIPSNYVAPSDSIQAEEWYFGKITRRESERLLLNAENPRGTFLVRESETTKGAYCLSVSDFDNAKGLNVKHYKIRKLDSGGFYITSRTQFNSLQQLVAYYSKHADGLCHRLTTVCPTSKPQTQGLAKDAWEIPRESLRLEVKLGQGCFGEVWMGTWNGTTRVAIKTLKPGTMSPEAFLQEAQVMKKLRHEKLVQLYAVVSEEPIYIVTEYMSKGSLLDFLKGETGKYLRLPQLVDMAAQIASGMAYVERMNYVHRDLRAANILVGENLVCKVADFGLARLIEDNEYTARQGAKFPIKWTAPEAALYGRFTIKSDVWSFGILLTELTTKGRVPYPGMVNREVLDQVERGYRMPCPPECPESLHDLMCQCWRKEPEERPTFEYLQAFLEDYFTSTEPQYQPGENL
Kit, sequence (P10721 26-976): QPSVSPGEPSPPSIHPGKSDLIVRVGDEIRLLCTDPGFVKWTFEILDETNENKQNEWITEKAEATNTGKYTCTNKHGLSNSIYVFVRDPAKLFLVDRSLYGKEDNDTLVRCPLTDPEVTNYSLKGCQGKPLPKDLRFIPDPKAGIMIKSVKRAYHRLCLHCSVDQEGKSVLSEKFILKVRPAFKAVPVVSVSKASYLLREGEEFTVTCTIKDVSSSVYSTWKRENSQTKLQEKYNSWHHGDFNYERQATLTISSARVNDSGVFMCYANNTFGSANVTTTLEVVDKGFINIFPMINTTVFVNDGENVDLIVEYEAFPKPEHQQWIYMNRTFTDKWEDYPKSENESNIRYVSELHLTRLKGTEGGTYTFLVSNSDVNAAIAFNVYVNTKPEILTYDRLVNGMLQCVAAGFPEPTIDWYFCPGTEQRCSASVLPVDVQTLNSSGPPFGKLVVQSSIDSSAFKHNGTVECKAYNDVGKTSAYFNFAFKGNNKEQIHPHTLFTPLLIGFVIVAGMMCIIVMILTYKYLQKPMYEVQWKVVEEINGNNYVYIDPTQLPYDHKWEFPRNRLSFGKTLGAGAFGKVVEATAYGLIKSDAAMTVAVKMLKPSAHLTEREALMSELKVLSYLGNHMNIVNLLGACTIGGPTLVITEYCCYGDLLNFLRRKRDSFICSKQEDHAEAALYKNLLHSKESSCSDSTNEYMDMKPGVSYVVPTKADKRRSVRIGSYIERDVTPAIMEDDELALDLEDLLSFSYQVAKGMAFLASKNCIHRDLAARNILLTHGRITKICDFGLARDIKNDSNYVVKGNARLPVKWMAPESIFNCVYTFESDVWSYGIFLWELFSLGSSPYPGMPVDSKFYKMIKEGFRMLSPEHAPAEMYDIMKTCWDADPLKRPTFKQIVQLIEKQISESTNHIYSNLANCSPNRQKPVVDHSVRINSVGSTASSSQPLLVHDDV

CS(=O)(=O)c1cccc(-c2cnc3[nH]cc(C(=O)c4cc(NS(=O)(=O)c5cccnc5)ccc4F)c3c2)c1 [P-2138, Pyridine-3-sulfonic acid {4-fluoro-3-[5-(3-methanesulfonyl-phenyl)-1H-pyrrolo[2,3-b]pyridine-3-carbonyl]-phenyl}-amide]
not listed: [8] | [9] | [10]
≤ 10 µM: all other assays above

Cn1cc(-c2cnc3[nH]cc(C(=O)c4cc(NS(=O)(=O)c5cccnc5)ccc4F)c3c2)cn1 [P-2140, Pyridine-3-sulfonic acid{4-fluoro-3-[5-(1-methyl-1H-pyrazol-4-yl)-1H-pyrrolo[2,3-b]pyridine-3-carbonyl]-phenyl}-amide]
≤ 10 µM: all assays above

COc1cnc2[nH]cc(C(=O)c3cccc(NS(=O)(=O)c4cccnc4)c3)c2c1 [P-2142, Pyridine-3-sulfonic acid [3-(5-methoxy-1H-pyrrolo[2,3-b]pyridine-3-carbonyl)-phenyl]-amide]
not listed: [8] | [10]
≤ 10 µM: all other assays above

Cn1cc(-c2cnc3[nH]cc(C(=O)c4cccc(NS(=O)(=O)c5cccnc5)c4)c3c2)cn1 [P-2144, Pyridine-3-sulfonic acid {3-[5-(1-methyl-1H-pyrazol-4-yl)-1H-pyrrolo[2,3-b]pyridine-3-carbonyl]-phenyl}-amide]
not listed: [8] | [10]
≤ 10 µM: all other assays above

CCS(=O)(=O)Nc1ccc(F)c(C(=O)c2c[nH]c3ncc(-c4cnn(C)c4)cc23)c1F [P-2271, Ethanesulfonic acid {2,4-difluoro-3-[5-(1-methyl-1H-pyrazol-4-yl)-1H-pyrrolo[2,3-b]pyridine-3-carbonyl]-phenyl}-amide]
not listed: [2] | [8]
≤ 10 µM: all other assays above

CCC(C)S(=O)(=O)Nc1ccc(F)c(C(=O)c2c[nH]c3ncc(OC)cc23)c1F (centres unmarked) [P-2308, Butane-2-sulfonic acid [2,4-difluoro-3-(5-methoxy-1H-pyrrolo[2,3-b]pyridine-3-carbonyl)-phenyl]-amide]
not listed: [3] | [6] | [9]
≤ 10 µM: all other assays above

Cn1cc(-c2cnc3[nH]cc(C(=O)c4c(F)ccc(NS(=O)(=O)C5CC5)c4F)c3c2)cn1 [P-2352, Cyclopropanesulfonic acid {2,4-difluoro-3-[5-(1-methyl-1H-pyrazol-4-yl)-1H-pyrrolo[2,3-b]pyridine-3-carbonyl]-phenyl}-amide]
not listed: [2] | [8]
≤ 10 µM: all other assays above

CN(C)S(=O)(=O)Nc1ccc(F)c(C(=O)c2c[nH]c3nccc(Cl)c23)c1F [P-2383, N,N-dimethylamino-sulfonic acid [3-(4-chloro-1H-pyrrolo[2,3-b]pyridine-3-carbonyl)-2,4-difluoro-phenyl]-amide]
≤ 10 µM: all assays above

CS(=O)(=O)c1cccc(-c2cnc3[nH]cc(C(=O)c4cc(NS(=O)(=O)C5CCCCC5)ccc4F)c3c2)c1 [P-2444, Cyclohexanesulfonic acid {4-fluoro-3-[5-(3-methanesulfonyl-phenyl)-1H-pyrrolo[2,3-b]pyridine-3-carbonyl]-phenyl}-amide]
≤ 10 µM: all assays above

CS(=O)(=O)Nc1cccc(-c2cnc3[nH]cc(C(=O)c4cc(NS(=O)(=O)C5CCCCC5)ccc4F)c3c2)c1 [P-2446, Cyclohexanesulfonic acid {4-fluoro-3-[5-(3-methanesulfonylamino-phenyl)-1H-pyrrolo[2,3-b]pyridine-3-carbonyl]-phenyl}-amide]
not listed: [9]
≤ 10 µM: all other assays above

CS(=O)(=O)Nc1cccc(-c2cnc3[nH]cc(C(=O)c4cc(NS(=O)(=O)C5CCCC5)ccc4F)c3c2)c1 [P-2447, Cyclopentanesulfonic acid {4-fluoro-3-[5-(3-methanesulfonylamino-phenyl)-1H-pyrrolo[2,3-b]pyridine-3-carbonyl]-phenyl}-amide]
≤ 10 µM: all assays above

Cc1cnc2[nH]cc(C(=O)c3cc(NS(=O)(=O)C4CCCC4)ccc3F)c2c1 [P-2448, Cyclopentanesulfonic acid [4-fluoro-3-(5-methyl-1H-pyrrolo[2,3-b]pyridine-3-carbonyl)-phenyl]-amide]
not listed: [8] | [9] | [10]
≤ 10 µM: all other assays above

COc1cnc2[nH]cc(C(=O)c3cccc(NS(=O)(=O)C4CCCCC4)c3)c2c1 [P-2460, Cyclohexanesulfonic acid [3-(5-methoxy-1H-pyrrolo[2,3-b]pyridine-3-carbonyl)-phenyl]-amide]
not listed: [8] | [9] | [10]
≤ 10 µM: all other assays above

CS(=O)(=O)c1cccc(-c2cnc3[nH]cc(C(=O)c4cccc(NS(=O)(=O)C5CCCCC5)c4)c3c2)c1 [P-2461, Cyclohexanesulfonic acid {3-[5-(3-methanesulfonyl-phenyl)-1H-pyrrolo[2,3-b]pyridine-3-carbonyl]-phenyl}-amide]
≤ 10 µM: [2] | [3] | [4] | [5] | [6] | [7]

COc1cnc2[nH]cc(C(=O)c3cccc(NS(=O)(=O)C4CCCC4)c3)c2c1 [P-2464, Cyclopentanesulfonic acid [3-(5-methoxy-1H-pyrrolo[2,3-b]pyridine-3-carbonyl)-phenyl]-amide]
not listed: [1] | [8] | [9]
≤ 10 µM: all other assays above
